The values that follow come from paper PMC12155888, “Design, Synthesis, and Antitumor Biological Evaluation of Galaxamide and Its Analogs” (Molecules, 2025).

The subject of experiment [1] is A549. It counts as cell-based, human. An excerpt: (§1) Since the antitumor activity of natural galaxamide is good, we are interested in the antitumor potential of the obtained new analogs. To examine the anticancer activities of galaxamide and its analogs, two different human cancer cell lines, human non-small-cell lung cancer cells (A549) and human chronic myelogenous leukemia (K562), and one normal human cell line, human immortal embryonic kidney cells (293T), were selected for the in vitro cell models. […] The synthetic galaxamide (Gala01) was also tested as the standard. […] It was also found […] the best selectivity and highest safety and is thus worthy of further development for anticancer drugs for K562. A549, K562, and 293T cells were purchased from the Cell Resource Center of the Institute of Basic Medicine, Chinese Academy of Medical Sciences. Both A549 cells and K562 cells were cultured in RPMI (full name: Roswell Park Memorial Institute) 1640 medium containing 10% FBS (full name: fetal bovine serum, product number: C04001-500, Vivacell, Shanghai, China) and 1% p/s (full name: penicillin-streptomycin, product number: 15140122, Gbico, Waltham, MA, USA) for culture. The 293T cells were all cultured in DMEM (full name: Dulbecco's Modified Eagle Medium; cat. no.: C3113-0500, Vivacell, ShanghaiChina; containing 10% FBS and 1% p/s) for cultivation. […] Multiple types of cells were seeded into 96-well plates and treated with different concentrations of […]26 for 48 h after they returned to normal. Then, the relative activity of the cells was detected according to the instructions of the CCK-8 kit (item number: MA0218, Meilunbio, Dalian, China) and analyzed and calculated using GraphPad Prism 8.0.1 software.

Experiment [2] has as its system 293T. The format is cell-based, human. The settings on record: 48 h.
Source text: as §1

Experiment [3] has as its system human renal cell carcinoma GRC-1. On the set-up: method as in PMID 18816120. The settings on record: human renal cell carcinoma GRC-1 cell line; cited from earlier work.
Experiment [4] deals with K562. It counts as cell-based, human. The method, then:
To examine the anticancer activities of galaxamide and its analogs, two different human cancer cell lines, human non-small-cell lung cancer cells (A549) and human chronic myelogenous leukemia (K562), and one normal human cell line, human immortal embryonic kidney cells (293T), were selected for the in vitro cell models. […] The synthetic galaxamide (Gala01) was also tested as the standard. […] A549, K562, and 293T cells were purchased from the Cell Resource Center of the Institute of Basic Medicine, Chinese Academy of Medical Sciences. Both A549 cells and K562 cells were cultured in RPMI (full name: Roswell Park Memorial Institute) 1640 medium containing 10% FBS (full name: fetal bovine serum, product number: C04001-500, Vivacell, Shanghai, China) and 1% p/s (full name: penicillin-streptomycin, product number: 15140122, Gbico, Waltham, MA, USA) for culture. The 293T cells were all cultured in DMEM (full name: Dulbecco's Modified Eagle Medium; cat. no.: C3113-0500, Vivacell, ShanghaiChina; containing 10% FBS and 1% p/s) for cultivation. […] Multiple types of cells were seeded into 96-well plates and treated with different concentrations of […]26 for 48 h after they returned to normal. Then, the relative activity of the cells was detected according to the instructions of the CCK-8 kit (item number: MA0218, Meilunbio, Dalian, China) and analyzed and calculated using GraphPad Prism 8.0.1 software.

Experiment [5] has as its system human hepatocellular carcinoma Hep G2. On the set-up: method as in PMID 18816120. The conditions noted are these: human hepatocellular carcinoma Hep G2 cell line; cited from earlier work.
[6] abbreviates: human non-small-cell lung cancer cells A549, 48 h, CCK-8, unit given in the text, not in Table 2, read-out: IC50 A549.
The mark [7] stands for this setting: normal human embryonic kidney cells 293T, CCK-8, NA = not determined due to low inhibitory activity, read-out: IC50 293T.
[8] abbreviates: human chronic myelogenous leukemia K562, 48 h, CCK-8, unit given in the text, not in Table 2, read-out: IC50 K562.

In brackets after ≈: the same amount, converted by molar mass. Several values for one entry are separate records, joined by “and”; a condition that tells them apart may be missing. Identical values can stand only once. Like-named read-outs stand apart in the source and are kept apart here. Where a SMILES comes first, the peptide text is derived from it. [ ]: non-standard residue; d: D form. NMeL = CN[C@@H](CC(C)C)C(=O)O; dNMeL = CN[C@H](CC(C)C)C(=O)O Where only a bound is given, the exact number is not on record here.

One may read the IC50 as the midpoint of a concentration-inhibition curve.

As to `CC(C)C[C@@H]1C(=O)N[C@H](CC(C)C)C(=O)N[C@H](CC(C)C)C(=O)N(C)[C@H](CC(C)C)C(=O)N[C@H](CC(C)C)C(=O)N1C` [Gala01, Cyclo(Me-D-Leu-D-Leu-D-Leu-Me-D-Leu-D-Leu)] (cyclo([dL][dL][dNMeL][dL][dNMeL])), the IC50 in experiment [1] (setting [6]) is 14 µM; in experiment [2] (setting [7]), 19.9 µM; in experiment [4] (setting [8]), more than 80 µM. Moreover, in experiment [3], the “IC50 GRC-1” value is given as 4.26 µg/mL (≈ 7.17 µM). The “IC50 Hep G2” value in experiment [5] is 4.63 µg/mL (≈ 7.8 µM).
As for `CC(C)C[C@@H]1NC(=O)[C@@H](CC(C)C)N(C)C(=O)[C@H](CC(C)C)NC(=O)[C@@H](CC(C)C)N(C)C(=O)[C@@H](CC(C)C)NC1=O` [Gala04, Cyclo(Me-D-Leu-L-Leu-D-Leu-Me-D-Leu-L-Leu)] (cyclo(L[dL][dNMeL]L[dNMeL])), the IC50 in experiment [1] (setting [6]) was 19 µM; in experiment [2] (setting [7]), 16.3 µM; in experiment [4] (setting [8]), 4.19 µM and 4.2 µM.
Consider `COC[C@H]1NC(=O)[C@H](CC(C)C)NC(=O)[C@H](CC(C)C)N(C)C(=O)[C@H](CC(C)C)NC(=O)[C@H](CC(C)C)N(C)C1=O` [Gala12, Cyclo(Me-L-Leu-L-Leu-O-Me-D-Ser-Me-L-Leu-L-Leu)] (cyclo(L[NMeL]L[dS](Me)[NMeL])), for which the results for the half-inhibitory concentration (IC50) in experiment [2] and in experiment [4] (48 h) were 14.1 µM and 61.8 µM, respectively.
Take `COC(=O)C[C@H]1NC(=O)[C@H](CC(C)C)NC(=O)[C@H](CC(C)C)N(C)C(=O)[C@H](CC(C)C)NC(=O)[C@H](CC(C)C)N(C)C1=O` [Gala14, Cyclo(Me-L-Leu-L-Leu-Methylester-D-Asp-Me-L-Leu-L-Leu)] (cyclo(L[NMeL]L[dD](OMe)[NMeL])): the IC50 in experiment [1] (48 h) was found to be 20 µM; in experiment [2] it was 22.2 µM; in experiment [4] (48 h), 29.6 µM.
For the molecule `CC(C)C[C@@H]1NC(=O)[C@H](CC(C)C)N(C)C(=O)[C@H](CC(C)C)NC(=O)[C@H](CC(C)C)N(C)C(=O)[C@@H](Cc2ccc(Br)cc2)NC1=O` [Gala18, Cyclo(Me-L-Leu-L-Leu-4-Bro-D-Phe-Me-L-Leu-L-Leu)], the IC50 in experiment [2] is 14.1 µM; in experiment [4] (48 h) it was 24.2 µM.
The like results for `CSCC[C@H]1NC(=O)[C@H](CC(C)C)NC(=O)[C@H](CC(C)C)N(C)C(=O)[C@H](CC(C)C)NC(=O)[C@H](CC(C)C)N(C)C1=O` [Gala22, Cyclo(Me-L-Leu-L-Leu-D-Met-Me-L-Leu-L-Leu)] (cyclo(L[NMeL]L[dM][NMeL])) were, in that order, 12.9 µM and 8.5 µM.
(−)-β-elemene [reference compound]: the IC50 in experiment [1] (setting [6]), in experiment [2] (setting [7]) and in experiment [4] (setting [8]) was more than 100 µM in each case.
